Measured values taken from PubChem BioAssay (NCI).
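In this assay, cells in 96-well plates receive the compound at five concentrations for 48 hours. Endpoints are linearly interpolated between the surrounding concentrations. At the GI50, growth is halved. TGI: concentration producing complete growth inhibition.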

Tests used:
Assay in all cases: DTP human tumour cell line panel, 48 h
786-0 renal = test system: 786-0 renal
A549 NSCLC = test system: A549 NSCLC
ACHN renal = test system: ACHN renal
BT-549 breast = test system: BT-549 breast
CAKI-1 renal = test system: CAKI-1 renal
CCRF-CEM leukemia = test system: CCRF-CEM leukemia
COLO 205 colon = test system: COLO 205 colon
DU-145 prostate = test system: DU-145 prostate
EKVX NSCLC = test system: EKVX NSCLC
HCC-2998 colon = test system: HCC-2998 colon
HCT-116 colon = test system: HCT-116 colon
HCT-15 colon = test system: HCT-15 colon
HL-60(TB) leukemia = test system: HL-60(TB) leukemia
HOP-62 NSCLC = test system: HOP-62 NSCLC
HOP-92 NSCLC = test system: HOP-92 NSCLC
HS 578T breast = test system: HS 578T breast
HT29 colon = test system: HT29 colon
IGROV1 ovarian = test system: IGROV1 ovarian
K-562 leukemia = test system: K-562 leukemia
KM12 colon = test system: KM12 colon
LOX IMVI melanoma = test system: LOX IMVI melanoma
MALME-3M melanoma = test system: MALME-3M melanoma
MCF7 breast = test system: MCF7 breast
MDA-MB-231 breast = test system: MDA-MB-231 breast
MDA-MB-435 = test system: MDA-MB-435
MOLT-4 leukemia = test system: MOLT-4 leukemia
NCI-H226 lung = test system: NCI-H226 lung
NCI-H23 lung = test system: NCI-H23 lung
NCI-H460 lung = test system: NCI-H460 lung
NCI-H522 lung = test system: NCI-H522 lung
NCI/ADR-RES ovarian = test system: NCI/ADR-RES ovarian
OVCAR-3 ovarian = test system: OVCAR-3 ovarian
OVCAR-4 ovarian = test system: OVCAR-4 ovarian
OVCAR-5 ovarian = test system: OVCAR-5 ovarian
OVCAR-8 ovarian = test system: OVCAR-8 ovarian
PC-3 prostate = test system: PC-3 prostate
RPMI-8226 leukemia = test system: RPMI-8226 leukemia
RXF 393 renal = test system: RXF 393 renal
SF-268 CNS = test system: SF-268 CNS
SF-295 CNS = test system: SF-295 CNS
SF-539 CNS = test system: SF-539 CNS
SK-MEL-2 melanoma = test system: SK-MEL-2 melanoma
SK-MEL-28 melanoma = test system: SK-MEL-28 melanoma
SK-MEL-5 melanoma = test system: SK-MEL-5 melanoma
SK-OV-3 ovarian = test system: SK-OV-3 ovarian
SN12C renal = test system: SN12C renal
SNB-19 CNS = test system: SNB-19 CNS
SNB-75 CNS = test system: SNB-75 CNS
SW-620 colon = test system: SW-620 colon
T-47D breast = test system: T-47D breast
TK-10 renal = test system: TK-10 renal
U251 CNS = test system: U251 CNS
UACC-257 melanoma = test system: UACC-257 melanoma
UACC-62 melanoma = test system: UACC-62 melanoma
UO-31 renal = test system: UO-31 renal
A498 renal = test system: A498 renal
M14 melanoma = test system: M14 melanoma

## Cc1c(-c2nnc(-c3ccc(F)cc3)o2)nnn1-c1ccnc2c(C(F)(F)F)cccc12
786-0 renal
  GI50: 40.6 µM
  TGI: > 100 µM
A549 NSCLC
  GI50: 32.3 µM
  TGI: > 100 µM
ACHN renal
  GI50: 30.8 µM
  TGI: > 100 µM
BT-549 breast
  GI50: 21.6 µM
  TGI: 58.1 µM
CAKI-1 renal
  GI50: 29.5 µM
  TGI: > 100 µM
CCRF-CEM leukemia
  GI50: > 100 µM
  TGI: > 100 µM
COLO 205 colon
  GI50: 42.1 µM
  TGI: > 100 µM
DU-145 prostate
  GI50: 30.4 µM
  TGI: > 100 µM
EKVX NSCLC
  GI50: 31.8 µM
  TGI: > 100 µM
HCC-2998 colon
  GI50: > 100 µM
  TGI: > 100 µM
HCT-116 colon
  GI50: 16.7 µM
  TGI: > 100 µM
HCT-15 colon
  GI50: > 100 µM
  TGI: > 100 µM
HL-60(TB) leukemia
  GI50: > 100 µM
  TGI: > 100 µM
HOP-62 NSCLC
  GI50: 24.4 µM
  TGI: 78.4 µM
HOP-92 NSCLC
  GI50: 14.7 µM
  TGI: 76.9 µM
HS 578T breast
  GI50: 15.5 µM
  TGI: 53.9 µM
HT29 colon
  GI50: 34.4 µM
  TGI: > 100 µM
IGROV1 ovarian
  GI50: 23.4 µM
  TGI: > 100 µM
K-562 leukemia
  GI50: 19.8 µM
  TGI: > 100 µM
KM12 colon
  GI50: 89.5 µM
  TGI: > 100 µM
LOX IMVI melanoma
  GI50: 44.5 µM
  TGI: > 100 µM
MALME-3M melanoma
  GI50: 41.7 µM
  TGI: > 100 µM
MCF7 breast
  GI50: 20.9 µM
  TGI: > 100 µM
MDA-MB-231 breast
  GI50: 29 µM
  TGI: > 100 µM
MDA-MB-435
  GI50: 77.6 µM
  TGI: > 100 µM
MOLT-4 leukemia
  GI50: > 100 µM
  TGI: > 100 µM
NCI-H226 lung
  GI50: 67.2 µM
  TGI: > 100 µM
NCI-H23 lung
  GI50: 65.7 µM
  TGI: > 100 µM
NCI-H460 lung
  GI50: 30.4 µM
  TGI: > 100 µM
NCI-H522 lung
  GI50: 84.7 µM
  TGI: > 100 µM
NCI/ADR-RES ovarian
  GI50: 40.3 µM
  TGI: > 100 µM
OVCAR-3 ovarian
  GI50: 28.7 µM
  TGI: > 100 µM
OVCAR-4 ovarian
  GI50: 21 µM
  TGI: > 100 µM
OVCAR-5 ovarian
  GI50: 66.7 µM
  TGI: > 100 µM
OVCAR-8 ovarian
  GI50: 41.8 µM
  TGI: > 100 µM
PC-3 prostate
  GI50: 23.1 µM
  TGI: > 100 µM
RPMI-8226 leukemia
  GI50: 30.6 µM
  TGI: > 100 µM
RXF 393 renal
  GI50: 21.6 µM
  TGI: 70.7 µM
SF-268 CNS
  GI50: 26.7 µM
  TGI: > 100 µM
SF-295 CNS
  GI50: 29.6 µM
  TGI: > 100 µM
SF-539 CNS
  GI50: 26.5 µM
  TGI: > 100 µM
SK-MEL-2 melanoma
  GI50: > 100 µM
  TGI: > 100 µM
SK-MEL-28 melanoma
  GI50: 22.6 µM
  TGI: 74.1 µM
SK-MEL-5 melanoma
  GI50: 30.4 µM
  TGI: > 100 µM
SK-OV-3 ovarian
  GI50: 30 µM
  TGI: > 100 µM
SN12C renal
  GI50: 41.3 µM
  TGI: > 100 µM
SNB-19 CNS
  GI50: 25.9 µM
  TGI: 82.3 µM
SNB-75 CNS
  GI50: 19.5 µM
  TGI: 61.2 µM
SW-620 colon
  GI50: 31.9 µM
  TGI: > 100 µM
T-47D breast
  GI50: 20 µM
  TGI: > 100 µM
TK-10 renal
  GI50: 32.2 µM
  TGI: 98.8 µM
U251 CNS
  GI50: 30.4 µM
  TGI: > 100 µM
UACC-257 melanoma
  GI50: > 100 µM
  TGI: > 100 µM
UACC-62 melanoma
  GI50: > 100 µM
  TGI: > 100 µM
UO-31 renal
  GI50: 60.3 µM
  TGI: > 100 µM

## COc1cc2c(cc1OC)-c1c(oc3cc(OC4OC(CO)C(O)C(O)C4O)c(OC)cc3c1=O)C(O)O2 (centres undefined)
786-0 renal
  TGI: > 100 µM
A498 renal
  TGI: > 100 µM
A549 NSCLC
  TGI: > 100 µM
ACHN renal
  TGI: > 100 µM
BT-549 breast
  TGI: > 100 µM
CAKI-1 renal
  TGI: > 100 µM
CCRF-CEM leukemia
  TGI: > 100 µM
COLO 205 colon
  TGI: > 100 µM
DU-145 prostate
  TGI: > 100 µM
EKVX NSCLC
  TGI: > 100 µM
HCC-2998 colon
  TGI: > 100 µM
HCT-116 colon
  TGI: > 100 µM
HCT-15 colon
  TGI: > 100 µM
HL-60(TB) leukemia
  TGI: > 100 µM
HOP-62 NSCLC
  TGI: > 100 µM
HOP-92 NSCLC
  TGI: > 100 µM
HS 578T breast
  TGI: > 100 µM
HT29 colon
  TGI: > 100 µM
IGROV1 ovarian
  TGI: > 100 µM
K-562 leukemia
  TGI: > 100 µM
KM12 colon
  TGI: > 100 µM
LOX IMVI melanoma
  TGI: > 100 µM
M14 melanoma
  TGI: > 100 µM
MALME-3M melanoma
  TGI: > 100 µM
MDA-MB-231 breast
  TGI: > 100 µM
MDA-MB-435
  TGI: > 100 µM
NCI-H226 lung
  TGI: > 100 µM
NCI-H23 lung
  TGI: > 100 µM
NCI-H460 lung
  TGI: > 100 µM
NCI-H522 lung
  TGI: > 100 µM
NCI/ADR-RES ovarian
  TGI: > 100 µM
OVCAR-3 ovarian
  TGI: > 100 µM
OVCAR-4 ovarian
  TGI: > 100 µM
OVCAR-5 ovarian
  TGI: > 100 µM
OVCAR-8 ovarian
  TGI: > 100 µM
PC-3 prostate
  TGI: > 100 µM
RPMI-8226 leukemia
  TGI: > 100 µM
RXF 393 renal
  TGI: > 100 µM
SF-268 CNS
  TGI: > 100 µM
SF-295 CNS
  TGI: > 100 µM
SF-539 CNS
  TGI: > 100 µM
SK-MEL-2 melanoma
  TGI: > 100 µM
SK-MEL-28 melanoma
  TGI: > 100 µM
SK-MEL-5 melanoma
  TGI: > 100 µM
SK-OV-3 ovarian
  TGI: > 100 µM
SN12C renal
  TGI: > 100 µM
SNB-19 CNS
  TGI: > 100 µM
SNB-75 CNS
  TGI: > 100 µM
SW-620 colon
  TGI: > 100 µM
TK-10 renal
  TGI: > 100 µM
U251 CNS
  TGI: > 100 µM
UACC-257 melanoma
  TGI: > 100 µM
UACC-62 melanoma
  TGI: > 100 µM
UO-31 renal
  TGI: > 100 µM
